Consider two compounds from paper PMC10094921, “A Lipidated Single-B-Chain Derivative of Relaxin Exhibits Improved In Vitro Serum Stability without Altering Activity” (International Journal of Molecular Sciences, 2023).

Residues, ends and D or L forms follow the SMILES beside them. No end group written: not given here. *: point of attachment. Palmitoyl = CCCCCCCCCCCCCCCC(=O)*

Data set [1] in a line: In vitro serum stability assay. Particulars: 37 °C. The data set is classed as in vitro ADME, human. On the procedure:
3.7. In Vitro Serum Stability Assay
A total of 400 µL of human serum was taken, and 200 µg peptide dissolved in 100 µL of water was added to human serum at 37 °C. A total of 80 µL of samples was removed at various time points (0 min, 30 min, 60 min, 120 min, 240 min, and 480 min), and 160 µL of acetonitrile was added to precipitate plasma proteins. The solution was then centrifuged at 12,000 rpm for 15 min at 4 °C. A total of 200 µL of supernatant was taken out and mixed with 240 µL of milli-Q water, and each sample was analyzed by RP-HPLC (2 × 80 μL injection), by measuring the area under the peak at the appropriate retention time compared to the peak area of the peptide at time zero minute (100%). Data analysis (n = 3, duplicate) was performed using Prism Version 8.0.2, a non-linear-fit one-phase decay model.

The test system of data set [2] is BJ3 human dermal myofibroblasts. Description: Myofibroblast differentiation in vitro (α-SMA expression, Western blot). The data set is classed as cell-based. The procedure:
3.8. Determination of the Effects of Lipidated (L)-B7-33 on Myofibroblast Differentiation In Vitro
To determine if the lipidation of B7-33 prolonged its ability to suppress myofibroblast differentiation in vitro, the effects of the native B7-33 peptide vs. lipidated (L)-B7-33 were compared in BJ3 cells, a human dermal fibroblast cell line. BJ3 fibroblasts were used between passages 15–18 and cultured as described before. […] BJ3 cells were plated in 12-well plates at a density of 1–1.25 × 10^5 cells per well and were then either left untreated or stimulated with transforming growth factor (TGF)-β1 (T; 2 ng/mL) alone (to promote myofibroblast differentiation) or with T + B7-33 (100 ng/mL) or T + L-B7-33 (100 ng/mL) for a 14-day period, in media that was left unchanged over this time period. The cells from duplicate wells per treatment group were isolated from plates at 3-, 5-, 7-, 10- and 14-days post-T ± peptide treatment and extracted for protein using the RIPA lysis buffer (ThermoFisher Scientific; Scoresby, Victoria, Australia). These experiments were performed six independent times.
Half the cell protein (in 10 μL of RIPA buffer) from each sample (that was fully reconstituted in 20 μL of RIPA buffer) was loaded and electrophoresed in separate mini-protean 4–15% precast gels, and analyzed by Western blotting using a primary monoclonal antibody to α-SMA (42 kDa; M0851; […]; Agilent Technologies, Santa Clara, CA, USA). The equivalent loading of protein between samples was confirmed using a rabbit monoclonal glyceraldehyde 3-phosphate dehydrogenase (GAPDH) housekeeping antibody (37 kDa; 2118; 1:1000 dilution; Cell Signaling Technology; Danvers, MA, USA). Each membrane was then subjected to appropriate anti-mouse (7076) or anti-rabbit (7074) horseradish peroxidase-conjugated secondary antibodies (both at a 1:2000 dilution; Cell Signaling Technologies), before proteins were detected using the Clarity Western ECL substrate detection kit and quantified by densitometry with a ChemiDoc MP Imaging System and Image Lab v.6.0 software (both from Bio-Rad Laboratories, Hercules, CA, USA).The density of α-SMA from each sample was corrected for GAPDH protein levels and then expressed relative to the ratio that was measured from the unstimulated control group, which was expressed as 1 in each case. Representative blots of α-SMA and GAPDH were also chosen for presentation in each case.
For orientation: In western blotting, separated proteins are transferred to a membrane and probed.

The subject of data set [3] is cyclic adenosine monophosphate (cAMP). To be noted: in fibroblasts; cited from earlier work. An excerpt:
(§1) The human gene-2 relaxin peptide (H2 relaxin) was discovered as a hormone of reproduction. The actions of H2 relaxin during pregnancy are pleiotropic, including strong antifibrotic, angiogenic, vasodilatory, antiapoptotic, and anti-inflammatory effects. These effects are mediated through the activation of the G protein-coupled receptor, Relaxin Family Peptide Receptor 1 (RXFP1), the native receptor for H2 relaxin [5]. However, H2 relaxin also has a high affinity for, and potency on, the related Relaxin Family Peptide Receptor 2 (RXFP2, a cognate receptor for INSL3 [6]) ...

Data set [4] relates to heart fibrosis, lung fibrosis. Particulars: rat vs. mouse; cited from earlier work.
From the text: as §1

Another data set relates to pERK pathway. To be noted: in fibroblasts; cited from earlier work.
From the text: as §1

Data set [5] concerns the target T1, 7BP protein (RXFP1 extracellular domain attached with a single TM domain) (Homo sapiens, UniProt Q9HBX9).
T1 construct: RXFP1 extracellular domain attached with a single TM domain instead of the native 7 TM domain; single transmembrane domain replacing the native 7 TM domain (heterologous); expressed in transfected cells; host or cells: HEK-293T cells stably expressing 7BP (HEK-7BP)
T1 sequence (Q9HBX9 1-409 limits assumed): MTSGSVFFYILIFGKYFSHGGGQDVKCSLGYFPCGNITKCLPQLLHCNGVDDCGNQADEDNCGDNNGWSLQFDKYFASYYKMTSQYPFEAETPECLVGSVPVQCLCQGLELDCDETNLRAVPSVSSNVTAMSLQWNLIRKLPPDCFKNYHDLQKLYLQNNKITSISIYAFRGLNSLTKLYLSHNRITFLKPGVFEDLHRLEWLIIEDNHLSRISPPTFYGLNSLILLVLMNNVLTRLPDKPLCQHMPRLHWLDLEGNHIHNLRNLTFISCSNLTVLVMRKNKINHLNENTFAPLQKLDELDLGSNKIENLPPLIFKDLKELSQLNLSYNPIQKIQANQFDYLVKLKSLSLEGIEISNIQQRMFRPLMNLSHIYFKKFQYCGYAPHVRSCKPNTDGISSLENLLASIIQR
Description: Eu-H2 relaxin competition binding in HEK-7BP cells, BSA free. To be noted: HEK-293T cells stably expressing 7BP, BSA excluded from buffer, mean ± SEM, n in brackets, one-site fit, read-out: HEK-7BP Binding B.S.A. Free Eu-H2 pKi (n) (converted). The procedure:
3.6. HEK-7BP Binding Assays
HEK-293T cells stably expressing the 7BP protein (HEK-7BP; RXFP1 extracellular domain attached with a single TM domain instead of the native 7 TM domain [30]) were plated in 96-well plates. The medium was aspirated off, and the cells were washed with phosphate-buffered saline (PBS) before competition binding assays were performed with Eu-H2 Relaxin (RXFP1 ligand), as previously described, with the only difference being that BSA was excluded from the binding assay buffer. Competition binding curves for each peptide were performed in triplicate, and each experiment was performed independently at least three times. Fluorescent measurements were carried out on a BMG POLARstar plate reader (BMG Labtech, Melbourne, Australia). Pooled data are presented as mean ± SE of specific binding and are fitted using a one-site binding curve in GraphPad Prism version 8 (GraphPad Inc., San Diego, CA, USA). Statistical analyses were conducted using a one-way analysis of variance with uncorrected Fisher’s least significant difference (LSD) post-hoc analysis in GraphPad Prism version 8.

Setting [6] is: human serum 400 µL + 200 µg peptide in 100 µL water, samples 0-480 min, acetonitrile precipitation, RP-HPLC peak area vs time zero, one-phase decay fit, n = 3, duplicate.

Turning to “VIKLSGRELVRAQIAISGMSTWSKRSL-NH2 [Analogue B7-33]”, in data set [1] (setting [6]), the half-life (in general, how long it takes for the measured level to halve) at 400 µg/mL was about 6 min and the “in vitro half-life in serum” value came to 6 min. Also, the “in vitro serum stability, in words” value in data set [1] (human serum, RP-HPLC, n = 3 independent experiments) was “degrades within minutes”. In addition, the “α-SMA expression levels versus T-alone-stimulated cells, in words” value in data set [2] (peptide 100 ng/mL + T 2 ng/mL, after 5–14 days of culture) was “fully returned to those measured for T-alone-stimulated cells”. Further, the “suppression of TGF-α-induced increase in α-SMA expression” value in data set [2] (peptide 100 ng/mL co-administered with T (2 ng/mL), after 72 h of culture, 0.5% FCS, n = 6 in duplicate) is reported as “almost fully suppressed”. In addition, the cAMP activation entry in data set [3] is on record as “barely activate”. Further, in data set [4], the “effect on fibrosis in animal models” value is listed as “reversed or resolved fibrosis”. Moreover, the “pERK pathway activation potency” value in the data set on pERK pathway was “potency similar to H2 relaxin”.

In the case of `CCCCCCCCCCCCCCCC(=O)NCCCC[C@H](NC(=O)[C@@H](NC(=O)[C@@H](N)C(C)C)[C@@H](C)CC)C(=O)N[C@@H](CC(C)C)C(=O)N[C@@H](CO)C(=O)NCC(=O)N[C@@H](CCCNC(=N)N)C(=O)N[C@@H](CCC(=O)O)C(=O)N[C@@H](CC(C)C)C(=O)N[C@H](C(=O)N[C@@H](CCCNC(=N)N)C(=O)N[C@@H](C)C(=O)N[C@@H](CCC(N)=O)C(=O)N[C@H](C(=O)N[C@@H](C)C(=O)N[C@H](C(=O)N[C@@H](CO)C(=O)NCC(=O)N[C@@H](CCSC)C(=O)N[C@@H](CO)C(=O)N[C@H](C(=O)N[C@@H](Cc1c[nH]c2ccccc12)C(=O)N[C@@H](CO)C(=O)N[C@@H](CCCCN)C(=O)N[C@@H](CCCNC(=N)N)C(=O)N[C@@H](CO)C(=O)N[C@@H](CC(C)C)C(N)=O)[C@@H](C)O)[C@@H](C)CC)[C@@H](C)CC)C(C)C` [B7-33_9K(Palm)] (H-VIK(Palmitoyl)LSGRELVRAQIAISGMSTWSKRSL-NH2; N-terminus assumed), the Ki in data set [5] is over 10 µM.
